Source: patent US7071232B1, “Small molecules that increase the conversion of food to body weight gain” (priority 1998, dated 2006)
“And” between values parts separate entries of the source, which are not always exact repeats. Equal entries are not always repeated. Where two headings read alike, the source gives them in different places.

What was measured:
[1] = system: Peterson×Hubbard male broiler chicks; settings: in vivo
[2] = system: Avian x Ross broiler chicks; experiment: Second experiment, less environmental stress: feed efficiency ratios through day 14; format: in vivo; settings: for Feed efficiency ratio, MEAN: through day 14; for conversion of feed to weight vs saline (in words): day 14
[3] = system: Peterson×Hubbard male broiler chicks; settings: in vivo; remark: listed apart in the source

Structure (SMILES): NCCC(=O)NCCSSCCNC(=O)CCN [beta-alethine]
- Survival (% Alive) [1]: 96% and 100% and 99% and 98%
- chicks died in one pen [1]: 5
- mortality rate [1]: 0%
- # dead from all causes of death (cumulative) ([1]; sc): 0
- Survival (% Alive) ([1]; sc): 100%
- % decrease over saline control, saline #1 ([2]; 2 pg in ovo vs saline in ovo #1): 0.34%
- % decrease over saline control, saline #2 ([2]; 2 pg in ovo vs saline in ovo #2): −0.34%
- Feed efficiency ratio, MEAN ([2]; 2 pg per bird in ovo): 1.181
- Feed efficiency ratio, MEAN ([2]; 2 pg per bird sc): 1.173
- % decrease over saline control ([2]; 2 pg sc vs saline s.c. control): −0.89%
- % decrease over saline control, saline #1 ([2]; 2 ng in ovo + fed in water (2 ng weekly) vs saline in ovo #1): 2.39%
- % decrease over saline control, saline #2 ([2]; 2 ng in ovo + fed in water (2 ng weekly) vs saline in ovo #2): 1.73%
- Feed efficiency ratio, MEAN ([2]; 2 ng in ovo + fed in water (2 ng weekly)): 1.157
- % decrease over saline control, saline #1 ([2]; 2 ng in ovo vs saline in ovo #1): 3.21%
- conversion of feed to weight vs saline (in words) ([2]; 2 ng in ovo): significantly greater conversion of feed to weight
- Feed efficiency ratio, MEAN ([2]; 2 ng per bird in ovo): 1.147
- Feed efficiency ratio, MEAN ([2]; 2 ng per bird sc): 1.150
- conversion of feed to weight vs saline (in words) ([2]; 2 ng s.c., not significant vs s.c. saline): significantly better than saline given in ovo
- % decrease over saline control ([2]; 2 ng sc vs saline s.c. control): 1.16%
- average decrease in feed efficiency ratios ([2]; normal flock of Avian×Ross broiler chicks): about 4%
- Deliverable Weight Ratio [3]: 1.367
- Deliverable Weight Ratio, % improvement vs negative control [3]: 10.8%
- Feed Efficiency [3]: 1.298
- Feed Efficiency, % improvement vs negative control [3]: 7.9%
